Source: ChEMBL document CHEMBL1137545, “Antiproliferative activities of a library of hybrids between indanones and HDAC inhibitor SAHA and MS-275 analogues” (Bioorg Med Chem Lett, 2007)
pIC50: −log10 of the molar value. The source made the active and inactive calls. The rule behind the calls is not given here.

How the values were obtained:
NCI-H661 = assay: Antiproliferative activity against H661 cells at 25 uM after 48 hrs; format: functional, cell-based; conditions: Homo sapiens
[1] = Antiproliferative activity against H661 cells after 48 hrs; format: functional, cell-based; conditions: Homo sapiens, NCI-H661, 48 h

Structure (SMILES) | Activity (NCI-H661) | pIC50 [1]
CC1(Cc2cccc(C(=O)NO)c2)Cc2ccccc2C1=O (centres undefined) | inactive | 
CC(/C=C/C(=O)NO)=C\[C@@H](C)C(=O)c1ccc(N(C)C)cc1 [TRICHOSTATIN] |  | 7.07
CC1(Cc2nc(C(=O)Nc3ccccc3N)cs2)Cc2ccccc2C1=O (centres undefined) | inactive | 
CC1(Cc2cccc(C(=O)Nc3ccccc3N)c2)Cc2ccccc2C1=O (centres undefined) | inactive | 
CC1(CCCCCC(=O)NO)Cc2ccccc2C1=O (centres undefined) | inactive | 
CC1(CCCCC(=O)NO)Cc2ccccc2C1=O (centres undefined) |  | < 4.60
CC1(CCCCCCC(=O)NO)Cc2ccccc2C1=O (centres undefined) |  | 4.70
CC1(Cc2nc(C(=O)NO)cs2)Cc2ccccc2C1=O (centres undefined) | inactive | 
CN(C)c1ccc2c(c1)CC(C)(CCCCC(=O)NO)C2=O (centres undefined) | inactive | 
